Results taken from patent publication US20230167068A1, “BENZOPYRAZOLE COMPOUND” (MEDSHINE DISCOVERY INC., priority 2019, published 2023).

Target: T1, CYP3A4 (Homo sapiens, UniProt P08684)
T1 construct: incubation system containing human liver microsomes, probe substrates, and co-factors; tissue Corning Inc. or other suppliers; host or cells: mixed (pooled) human liver microsomes
Assay: Human liver microsomal CYP repression experiment
Type: in vitro ADME
Protocol: The purpose of the research project was to evaluate the repression of the test sample on human liver microsomal cytochrome P450 isoenzyme (CYP3A4) using a 5-in-1 probe substrate of CYP isoenzyme.
Mixed human liver microsomes (HLM) were purchased from Corning Inc. (Steuben, New York, USA) or other suppliers and stored at temperatures below -70° C. before use.
The diluted series concentration of the test sample was added to the incubation system containing human liver microsomes, probe substrates, and co-factors of the circulating system, and the control without the test sample but with solvent was used as the enzyme activity control (100%). The concentration of metabolites produced by the probe substrate in the sample was determined by liquid chromatography-tandem mass spectrometry (LC-MS/MS). Non-linear regression analysis of the mean percent activity of the test sample versus concentration was performed using SigmaPlot (V. 11). The IC50 values were calculated by a three- or four-parameter inverse logarithmic equation.

T1 sequence (P08684 whole entry): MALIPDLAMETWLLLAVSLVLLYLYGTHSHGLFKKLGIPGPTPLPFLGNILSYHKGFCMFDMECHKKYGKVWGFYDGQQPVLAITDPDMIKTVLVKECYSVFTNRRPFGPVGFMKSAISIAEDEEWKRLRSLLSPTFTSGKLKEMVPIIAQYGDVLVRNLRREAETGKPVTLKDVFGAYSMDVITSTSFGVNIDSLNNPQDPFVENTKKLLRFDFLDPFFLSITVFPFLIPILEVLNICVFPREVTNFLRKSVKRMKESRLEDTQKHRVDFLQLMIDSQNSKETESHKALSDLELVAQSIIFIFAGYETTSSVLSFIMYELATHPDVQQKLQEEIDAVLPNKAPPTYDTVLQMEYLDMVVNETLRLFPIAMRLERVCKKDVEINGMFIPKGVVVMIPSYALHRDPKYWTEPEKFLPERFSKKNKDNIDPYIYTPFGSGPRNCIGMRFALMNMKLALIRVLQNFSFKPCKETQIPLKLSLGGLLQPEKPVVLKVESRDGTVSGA

## C[C@H](NC(=O)C(C)(F)F)[C@H](Oc1ccc2c(cnn2-c2ccc3nncn3c2)c1)c1cc(F)cc(F)c1 [WX019]
Conclusion on Table 3
  repression on CYP3A4 (in words): significantly improve the repression of CYP3A4
Mixed human liver microsomes, 5-in-1 probe substrate
  IC50: 9.12 µM
